Test results as given in patent publication US20140205537A1, “LRRK2 INHIBITORS” (ZENOBIA THERAPEUTICS, INC., priority 2011, published 2014).

Target: G2019S LRRK2 (Homo sapiens, UniProt Q5S007, G2019S)
Assay: G2019S LRRK2 inhibition (Invitrogen SelectScreen / TR-FRET biochemical assay)
Design: The protein construct used in the assay is GST tagged 969-2527; GST; purchased Invitrogen
Conditions: for IC50: numeric value
Procedure: IC50s were determined using Invitrogen's SelectScreen® Profiling Service for wild type and LRRK2 G2019S. The test compounds were screened in 1% DMSO (final) in the well.
a) % inhibition is measured at one concentration
b) a 10-point titration is run to ensure the kinase is inhibited within an expected IC50 range
Biochemical Assay Protocol:
Compound potency against wild-type and G2019S LRRK2 is measured via TR-FRET. The IC50, the amount of inhibitor required to inhibitor 50% of the protein under the given assay conditions, is determined by varying the amount of compound (500-0.001 uM) by serial dilution with 12-data points per compound, in duplicate. The substrate (Fluorescein-GAGRLGRDKYKTLRQIRQ) and ATP is fixed at 0.8 uM and 57 uM (KmATP), respectively. All assays are run in Corning low volume […] round bottomed plates. The assay is run in 50 mM Tris-HCl pH8.5, 10 mM MgCl2, 0.01% Brij-35, 1 mM EGTA, 2 mMDTT. The TR-FRET assay is an end-point assay where the reaction with protein, substrate, inhibitor and ATP is incubated for 1 hour at room temperature. The compound is pre-incubated with the protein and substrate prior to initiating the reaction with ATP. Phospho-transfer is detected using a Terbium labeled anti-pLRRKtide that binds to phosphorylated substrate creating FRET transfer when excited at 340 nm. Emissions signals are taken for terbium and FRET induced fluorescein at 495 nm and 520 nm, respectively, using a Biotek Synergy 2 spectrophotometer. The dose response is determined by plotting the emission ratio of 520/495 against the log of the inhibitor concentration. The maximum inhibition and non-inhibition controls is run on all plates. Staurosporine is used as the positive inhibition control and DMSO is used as the negative point control. A 12-point dose curve of Staurosporine is run as a dosing control. The IC50 is determined to be the inhibitor concentration at which 50% inhibition is achieved. The protein construct used in the assay is GST tagged 969-2527. The protein is commercially available from Invitrogen.
Alternatively, compounds of formulas (II), (I), (I-A), (I-B), (I-C), (I-D), (I-D-1), (I-D-2), (I-E), (I-F), (I-G), (I-H), (I-I), (I-I-1), (I-I-2), (I-J), (I-K), (I-L), (I-M), (I-N), (I-Z-1), (I-Z-2), (I-Z-2-a), (I-Z-2-b), (I-Z-2-c), (I-Z-2-d), (I-Z-3-a), (I-Z-3-b), (I-Z-3-c), or (I-Z-3-d) were tested using Invitrogen's SelectScreen® Profiling Service for LRRK2 G2019S.

Sequence of G2019S LRRK2 (Q5S007 969-2527 G2019S): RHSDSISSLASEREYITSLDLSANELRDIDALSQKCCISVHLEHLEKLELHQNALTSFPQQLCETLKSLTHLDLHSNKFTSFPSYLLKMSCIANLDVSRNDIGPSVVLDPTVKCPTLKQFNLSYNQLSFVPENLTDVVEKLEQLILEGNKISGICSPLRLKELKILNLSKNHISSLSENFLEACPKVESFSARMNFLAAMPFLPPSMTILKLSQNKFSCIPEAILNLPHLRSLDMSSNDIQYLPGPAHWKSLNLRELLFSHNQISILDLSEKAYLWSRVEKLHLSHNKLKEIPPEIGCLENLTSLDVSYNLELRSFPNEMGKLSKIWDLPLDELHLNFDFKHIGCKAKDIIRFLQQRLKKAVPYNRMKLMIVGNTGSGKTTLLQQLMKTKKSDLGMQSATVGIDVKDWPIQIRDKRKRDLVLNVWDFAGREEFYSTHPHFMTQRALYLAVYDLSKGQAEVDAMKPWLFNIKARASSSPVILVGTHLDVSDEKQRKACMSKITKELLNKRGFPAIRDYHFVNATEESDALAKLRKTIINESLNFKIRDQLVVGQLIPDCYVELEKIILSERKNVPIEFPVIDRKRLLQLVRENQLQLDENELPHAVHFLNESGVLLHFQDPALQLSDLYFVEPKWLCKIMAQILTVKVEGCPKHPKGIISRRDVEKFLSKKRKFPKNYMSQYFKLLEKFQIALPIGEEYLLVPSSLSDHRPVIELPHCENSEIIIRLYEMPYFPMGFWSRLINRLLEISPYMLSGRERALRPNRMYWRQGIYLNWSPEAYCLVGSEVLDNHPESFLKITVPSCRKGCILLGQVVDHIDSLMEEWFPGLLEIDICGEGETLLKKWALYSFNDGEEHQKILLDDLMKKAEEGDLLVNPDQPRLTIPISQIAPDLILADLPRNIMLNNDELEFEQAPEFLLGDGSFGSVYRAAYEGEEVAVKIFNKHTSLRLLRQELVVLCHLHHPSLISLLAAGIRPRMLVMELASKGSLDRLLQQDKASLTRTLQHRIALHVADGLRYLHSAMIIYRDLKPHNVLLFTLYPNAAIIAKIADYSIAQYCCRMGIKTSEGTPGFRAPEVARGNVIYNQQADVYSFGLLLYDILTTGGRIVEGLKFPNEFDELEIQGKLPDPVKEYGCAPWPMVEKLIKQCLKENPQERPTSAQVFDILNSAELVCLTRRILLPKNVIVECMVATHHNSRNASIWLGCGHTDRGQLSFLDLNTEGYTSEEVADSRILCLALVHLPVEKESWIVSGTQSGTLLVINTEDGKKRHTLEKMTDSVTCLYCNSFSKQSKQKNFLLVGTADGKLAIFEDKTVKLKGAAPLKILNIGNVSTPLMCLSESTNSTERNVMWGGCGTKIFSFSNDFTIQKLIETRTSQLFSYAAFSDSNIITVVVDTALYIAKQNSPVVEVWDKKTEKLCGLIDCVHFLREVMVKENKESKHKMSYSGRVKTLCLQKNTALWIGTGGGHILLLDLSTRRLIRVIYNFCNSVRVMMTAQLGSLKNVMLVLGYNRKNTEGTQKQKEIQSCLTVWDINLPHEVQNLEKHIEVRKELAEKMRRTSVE

| Compound | IC50 [nM] | other results |
| --- | --- | --- |
| COCc1ncc(/C=C2\C(=O)Nc3ccc(OC)cc32)[nH]1 [Compound 17, (3Z)-5-methoxy-3-[[2-(methoxymethyl)-1H-imidazol-5-yl]methylene]indolin-2-one] | 38.7 | – |
| Cc1ncc(/C=C2\C(=O)Nc3ccc(F)cc32)[nH]1 [Compound 3, (3Z)-5-fluoro-3-[(2-methyl-1H-imidazol-5-yl)methylene]indolin-2-one] | 38 | – |
| O=C1Nc2ccccc2/C1=C\c1cnc2ccccc2c1 [Compound 8, (3E)-3-(3-quinolylmethylene)indolin-2-one] | 872 | – |
| COc1ccc2c(c1)NC(=O)/C2=C\c1cnc(C)[nH]1 [Compound 6, (3Z)-6-methoxy-3-[(2-methyl-1H-imidazol-5-yl)methylene]indolin-2-one] | 127 | – |
| Cc1ncc(/C=C2\C(=O)Nc3ccc(S(C)(=O)=O)cc32)[nH]1 [Compound 15, (3Z)-3-[(2-methyl-1H-imidazol-5-yl)methylene]-5-methylsulfonyl-indolin-2-one] | 125 | – |
| CCc1ncc(/C=C2\C(=O)Nc3ccc(OC)cc32)[nH]1 [Compound 16, (3Z)-3-[(2-ethyl-1H-imidazol-5-yl)methylene]-5-methoxy-indolin-2-one] | 3.5 | – |
| COc1ccc2c(c1)/C(=C/c1cnc(C)[nH]1)C(=O)N2 [Compound 4, (3Z)-5-methoxy-3-[(2-methyl-1H-imidazol-5-yl)methylene]indolin-2-one] | 6.9 | – |
| Cc1ncc(/C=C2\C(=O)Nc3ccc(Cl)cc32)[nH]1 [Compound 10, (3Z)-5-chloro-3-[(2-methyl-1H-imidazol-5-yl)methylene]indolin-2-one] | 16.4 | – |
| O=C1Nc2ccccc2/C1=C\c1nc2ccccc2s1 [Compound 7, (3E)-3-(1,3-benzothiazol-2-ylmethylene)indolin-2-one] | – | inhibition at 0.1 µM: -5% |
| CCOc1ccc2c(c1)/C(=C/c1cnc(C)[nH]1)C(=O)N2 [Compound 13, (3Z)-5-ethoxy-3-[(2-methyl-1H-imidazol-5-yl)methylene]indolin-2-one] | 3.1 | – |
| Cc1ncc(/C=C2\C(=O)Nc3ccc(OC(F)(F)F)cc32)[nH]1 [Compound 11, (3Z)-3-[(2-methyl-1H-imidazol-5-yl)methylene]-5-(trifluoromethoxy)indolin-2-one] | 41.2 | – |
| O=C1Nc2ccccc2/C1=C\c1nc2ccccc2o1 [Compound 9, (3E)-3-(1,3-benzoxazol-2-ylmethylene)indolin-2-one] | – | inhibition at 10 µM: 11% |
| O=C1Nc2ccccc2/C1=C/c1cc2cccnc2[nH]1 [Compound 5, (3Z)-3-(1H-pyrrolo[2,3-b]pyridin-2-ylmethylene)indolin-2-one] | – | inhibition at 10 µM: 30% |
| Cc1cc(/C=C2\C(=O)Nc3ccccc32)[nH]n1 [Compound 1, (3Z)-3-[(3-methyl-1H-pyrazol-5-yl)methylene]indolin-2-one] | – | inhibition at 0.1 µM: 22% |
| Cc1cnc(/C=C2\C(=O)Nc3ccccc32)[nH]1 [Compound 2, (3Z)-3-[(5-methyl-1H-imidazol-2-yl)methylene]indolin-2-one] | 181 | – |
